Biological target: Amyloid-beta precursor protein (Homo sapiens) (UniProt P05067)
Experiment: Inhibition of self-mediated aggregation of amyloid beta (1 to 42 residues) (unknown origin) at 10 uM by Thioflavin T based assay relative to control

Chain of Amyloid-beta precursor protein (Homo sapiens) (P05067 whole entry, the tested form may be a part): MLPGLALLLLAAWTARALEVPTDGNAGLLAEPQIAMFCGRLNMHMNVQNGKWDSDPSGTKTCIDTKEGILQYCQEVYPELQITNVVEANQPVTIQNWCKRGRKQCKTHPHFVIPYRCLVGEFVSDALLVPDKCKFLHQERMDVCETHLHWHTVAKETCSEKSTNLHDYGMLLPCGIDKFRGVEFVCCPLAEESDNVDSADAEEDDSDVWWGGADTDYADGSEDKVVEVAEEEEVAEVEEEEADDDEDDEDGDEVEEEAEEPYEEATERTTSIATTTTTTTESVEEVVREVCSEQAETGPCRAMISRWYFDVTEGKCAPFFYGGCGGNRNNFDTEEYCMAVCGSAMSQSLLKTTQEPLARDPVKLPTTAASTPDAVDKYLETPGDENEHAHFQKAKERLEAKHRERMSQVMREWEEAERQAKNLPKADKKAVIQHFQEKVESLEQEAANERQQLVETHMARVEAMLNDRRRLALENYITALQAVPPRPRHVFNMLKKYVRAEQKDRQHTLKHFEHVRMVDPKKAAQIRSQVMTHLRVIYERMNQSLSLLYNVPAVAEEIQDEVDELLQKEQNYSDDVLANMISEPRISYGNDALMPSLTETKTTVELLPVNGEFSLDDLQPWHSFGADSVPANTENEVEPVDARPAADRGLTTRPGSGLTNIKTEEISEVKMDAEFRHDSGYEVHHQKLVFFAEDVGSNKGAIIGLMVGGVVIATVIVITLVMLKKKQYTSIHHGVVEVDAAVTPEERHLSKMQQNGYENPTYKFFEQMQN

- inhibition: 83.7%
Compound: COc1cc(/C=C/C(=O)Nc2ccc(-c3ccc(NC(=O)/C=C/c4ccc(O)c(OC)c4)cc3)cc2)ccc1O

— ChEMBL document CHEMBL4184203, “A review on the hybrids of hydroxycinnamic acid as multi-target-directed ligands against Alzheimer's disease” (Bioorg Med Chem, 2018)
